{"source": "patent US20250099474A1", "about": "(priority 2022, published 2025)", "key": {"[1]": {"system": "SARS-CoV-2", "conditions": "mouse, in vivo"}, "[2]": {"system": "SARS-CoV-2", "format": "in vivo, human", "conditions": "Phase 3 Part; for Time to resolution of five COVID-19 symptoms: Maximum value: +: includes censored data", "procedure": "The primary endpoint of Phase 3 Part was the time to resolution of five COVID-19 symptoms in mild/moderate SARS-CoV-2-infected patients, and the efficacy was verified by evaluation of the five COVID-19 symptoms in four grades (0: none, 1: mild, 2: moderate, 3: severe) by the patients themselves.\nThe 750/250 mg group received 750 mg on Day 1 as a loading dose and 250 mg on Days 2 to 5 as a maintenance dose.\nThe primary efficacy endpoint of Phase 3 Part for mild/moderate SARS-CoV-2-infected patients was the time to resolution of the five COVID-19 symptoms.\nExisting symptoms that existed before the onset of COVID-19 and were determined by the subject to be worsening at the baseline (pre-administration test) time point had to be improved […] from the severity at the baseline time point. • Severity at baseline was “severe”→“moderate”, “mild”, or “none” • Severity at baseline was “moderate”→“mild”, or “none” • Severity at baseline was “mild”→[…] “none” • Existing symptoms that existed before the onset of COVID-19 and were determined by the subject not to be worsening at the baseline (pre-administration test) time point had to be maintained or improved from the severity at the baseline time point. • Severity at baseline was “severe”->“severe”, “moderate”, “mild”, or “none” • Severity at baseline was “moderate”->“moderate”, “mild”, or “none” • Severity at baseline was “mild”→“mild”, or “none” • Regarding symptoms other than the above, that is, symptoms that were not present before the onset of COVID-19 and developed at or after the baseline (pre-administration test) time point, such symptoms had to be eliminated. • Severity at baseline was “severe”, “moderate”, or “mild”→“none”\nAs the key secondary analysis of the primary endpoint, the same analysis as the primary analysis was performed for the population of the mild/moderate SARS-CoV-2-infected patients in the ITT population."}, "[3]": {"conditions": "ITT, onset to randomization less than 72 hours, 375/125 mg group"}, "[4]": {"conditions": "mild/moderate patients, ITT population, 375/125 mg group"}, "[5]": {"conditions": "mild/moderate patients, ITT population, 750/250 mg group"}, "[6]": {"conditions": "mild/moderate patients, ITT, onset to randomization less than 72 hours, 375/125 mg group"}}, "note": "Where two headings read alike, the source gives them in different places.", "data": [{"smiles": "Cn1cnc(Cn2c(=O)[nH]/c(=N\\c3cc4cn(C)nc4cc3Cl)n(Cc3cc(F)c(F)cc3F)c2=O)n1", "note": "[(6E)-6-[(6-chloro-2-methyl-2H-indazol-5-yl)imino]-3-[(1-methyl-1H-1,2,4-triazol-3-yl)methyl]-1-[(2,4,5-trifluorophenyl)methyl]-1,3,5-triazinane-2,4-dione]", "values": [{"measurement": "maximum plasma concentration (Cmax) in humans that reduces the virus titer by 2 log", "setting": "[1]", "value": 14.1, "unit": "μg/mL"}, {"measurement": "maximum plasma concentration (Cmax) in humans that reduces the virus titer by 3 log", "setting": "[1]", "value": 23.0, "unit": "μg/mL"}, {"measurement": "Time to resolution of the five symptoms of COVID-19 shortened as the median value compared with placebo group by", "setting": "[2]; ITT population, 375/125 mg group", "value": 10.6, "unit": "h"}, {"measurement": "Time to resolution of 12 COVID-19 symptoms reduced compared to placebo group by a median of", "setting": "[2]; [3]", "value": 34.0, "unit": "h"}, {"measurement": "Time to resolution of 14 COVID-19 symptoms reduced compared to placebo group by a median of", "setting": "[2]; [3]", "value": 44.1, "unit": "h"}, {"measurement": "Time to resolution of the five COVID-19 symptoms shortened as the median compared with placebo group by", "setting": "[2]; [3]", "value": 24.3, "unit": "h"}, {"measurement": "Time to resolution of the five symptoms of COVID-19, significance vs placebo", "setting": "[2]; mild/moderate patients, ITT population", "value": "no significant difference was observed"}, {"measurement": "Time to resolution of five COVID-19 symptoms: 25% point", "setting": "[2]; [4]", "value": "104.3, — hour"}, {"measurement": "Time to resolution of five COVID-19 symptoms: Difference of RMST (vs placebo)", "setting": "[2]; [4]", "value": -5.6, "unit": "h"}, {"measurement": "Time to resolution of five COVID-19 symptoms: Difference of median value (vs placebo)", "setting": "[2]; [4]", "value": -10.6, "unit": "h"}, {"measurement": "Time to resolution of five COVID-19 symptoms: Kaplan-Meier median value", "setting": "[2]; [4]", "value": 189.7, "unit": "h"}, {"measurement": "Time to resolution of five COVID-19 symptoms: Minimum value", "setting": "[2]; [4]", "value": 2.4, "unit": "h"}, {"measurement": "Time to resolution of five COVID-19 symptoms: Number of events (value in parentheses)", "setting": "[2]; [4]", "value": "(73.0)"}, {"measurement": "Time to resolution of five COVID-19 symptoms: Restricted mean survival time during 21 days (RMST)", "setting": "[2]; [4]", "value": 254.4, "unit": "h"}, {"measurement": "Time to resolution of five COVID-19 symptoms: Number of events", "setting": "[2]; mild/moderate patients, ITT population, 375/125 mg group, 582 cases analyzed", "value": 425}, {"measurement": "Time to resolution of five COVID-19 symptoms: Maximum value", "setting": "[2]; [4]", "value": 493.3, "unit": "h"}, {"measurement": "Time to resolution of five COVID-19 symptoms: 25% point", "setting": "[2]; [5]", "value": 99.2, "unit": "h"}, {"measurement": "Time to resolution of five COVID-19 symptoms: 75% point", "setting": "[2]; [5]", "value": 434.8, "unit": "h"}, {"measurement": "Time to resolution of five COVID-19 symptoms: Difference of RMST (vs placebo)", "setting": "[2]; [5]", "value": -14.9, "unit": "h"}, {"measurement": "Time to resolution of five COVID-19 symptoms: Difference of median value (vs placebo)", "setting": "[2]; [5]", "value": -23.0, "unit": "h"}, {"measurement": "Time to resolution of five COVID-19 symptoms: Kaplan-Meier median value", "setting": "[2]; [5]", "value": 177.3, "unit": "h"}, {"measurement": "Time to resolution of five COVID-19 symptoms: Minimum value", "setting": "[2]; [5]", "value": 9.4, "unit": "h"}, {"measurement": "Time to resolution of five COVID-19 symptoms: Number of events (value in parentheses)", "setting": "[2]; [5]", "value": "(75.3)"}, {"measurement": "Time to resolution of five COVID-19 symptoms: Restricted mean survival time during 21 days (RMST)", "setting": "[2]; [5]", "value": 245.1, "unit": "h"}, {"measurement": "Time to resolution of five COVID-19 symptoms: Number of events", "setting": "[2]; mild/moderate patients, ITT population, 750/250 mg group, 575 cases analyzed", "value": 433}, {"measurement": "Time to resolution of five COVID-19 symptoms: Maximum value", "setting": "[2]; [5]", "value": 493.1, "unit": "h"}, {"measurement": "Time to resolution of 12 COVID-19 symptoms: 25% point", "setting": "[2]; [6]", "value": "105.6, — hour"}, {"measurement": "Time to resolution of 12 COVID-19 symptoms: Difference of RMST (vs placebo)", "setting": "[2]; [6]", "value": -16.9, "unit": "h"}, {"measurement": "Time to resolution of 12 COVID-19 symptoms: Difference of median value (vs placebo)", "setting": "[2]; [6]", "value": -34.0, "unit": "h"}, {"measurement": "Time to resolution of 12 COVID-19 symptoms: Kaplan-Meier median value", "setting": "[2]; [6]", "value": 179.2, "unit": "h"}, {"measurement": "Time to resolution of 12 COVID-19 symptoms: Minimum value", "setting": "[2]; [6]", "value": 2.4, "unit": "h"}, {"measurement": "Time to resolution of 12 COVID-19 symptoms: Number of events (value in parentheses)", "setting": "[2]; [6]", "value": "(72.6)"}, {"measurement": "Time to resolution of 12 COVID-19 symptoms: Restricted mean survival time during 21 days (RMST)", "setting": "[2]; [6]", "value": 253.9, "unit": "h"}, {"measurement": "Time to resolution of 14 COVID-19 symptoms: 25% point", "setting": "[2]; [6]", "value": "105.6, — hour"}, {"measurement": "Time to resolution of 14 COVID-19 symptoms: Difference of RMST (vs placebo)", "setting": "[2]; [6]", "value": -20.1, "unit": "h"}, {"measurement": "Time to resolution of 14 COVID-19 symptoms: Difference of median value (vs placebo)", "setting": "[2]; [6]", "value": -44.1, "unit": "h"}, {"measurement": "Time to resolution of 14 COVID-19 symptoms: Kaplan-Meier median value", "setting": "[2]; [6]", "value": 187.8, "unit": "h"}, {"measurement": "Time to resolution of 14 COVID-19 symptoms: Minimum value", "setting": "[2]; [6]", "value": 2.4, "unit": "h"}, {"measurement": "Time to resolution of 14 COVID-19 symptoms: Number of events (value in parentheses)", "setting": "[2]; [6]", "value": "(71.7)"}, {"measurement": "Time to resolution of 14 COVID-19 symptoms: Restricted mean survival time during 21 days (RMST)", "setting": "[2]; [6]", "value": 257.9, "unit": "h"}, {"measurement": "Time to resolution of five COVID-19 symptoms: 25% point", "setting": "[2]; [6]", "value": 99.5, "unit": "h"}, {"measurement": "Time to resolution of five COVID-19 symptoms: 75% point", "setting": "[2]; [6]", "value": 424.8, "unit": "h"}]}]}
